In patent US6255324A, “Amino-and mercurio-substituted 4',5'-dihydropsoralens and therapeutical uses thereof” (priority 1998, dated 2001):
Counter-ions that a name gives are not always drawn. Like-named read-outs stand apart in the source and are kept apart here.

How the values were obtained:
[1] = system: PAM 212 keratinocytes; experiment: PAM 212 keratinocyte growth inhibition (photo-toxicity with UVA / dark-toxicity without light); assay type: cell-based
[2] = system: Aspergillus niger; experiment: Fungicidal assay, MIC against Aspergillus niger in MSY broth; assay type: cell-based; details: Table II, four days at 28° C, in the dark, no unit in table (ppm levels)
Experimental: The antifungal activities of compounds synthesized were measured by determining the inhibition of growth of Aspergillus niger in a standard liquid medium. The liquid growth medium is described as a solution of mineral salts and yeast extract (MSY). The MSY broth was prepared as described in ASTM G21-70, and amended with glucose (10 g/l) and yeast extract (1 g/l). An aliquot ([…]) of sterile medium was dispensed into each test well of a standard 96 well microplate (Corning No. 430247). Stock solutions of test compounds were prepared by dissolving the materials in 9:1 (v/v) solutions of acetone:methanol. Appropriate volumes of stock solutions were added to the test wells in order to achieve the desired ppm levels. Each test well (plus controls) was then inoculated with […] of a standardized suspension of Aspergillus niger. The cell suspension was prepared by suspending viable cells from a slant of potato dextrose agar into sterile, deionized water. The suspension was then adjusted to provide OD686 =0.28. This density contains approximately 2.5×10^7 CFU (colony forming units)/ml. The microplates were incubated in the dark for four days at 28° C. The optical density for each well at 686 nm was then recorded automatically using a SpectraMax 340 microplate reader (Molecular Devices Corp., Sunnyvale, Calif.). All wells were visually inspected in order to corroborate data from the instrument.
The antifungal activity was measured as minimum inhibitory concentrations or MIC of the 5'-substituted-4',5'-dihydropsoralens.

[3] = system: Chlorella vulgaris; experiment: Algicidal assay, MIC against Chlorella in modified Allen's medium; assay type: cell-based; details: Table III, 14 days, 26 to 28° C, no unit in table (ppm)
Experimental: To assay the activity of the 5'-substituted-4',5'-dihydropsoralens of the invention against Chlorella, the Allen method (A. A. Allen, […], Journal of Phycology, 4, 1-4) was employed. […] The minimum inhibitory concentration (MIC) of the compounds tested against the fungus Aspergillus niger using an MSY broth is shown in Table II.
Test tubes containing modified Allen's medium were treated with increasing dosages of the compound to be tested and inoculated with a suspension of algal cells. After fourteen days of incubation, algal growth was rated as positive or negative. The minimum inhibitory concentration (MIC) of the compound is the smallest dosage showing negative algal growth.
The apparatus required consisted of sterilized test tubes, 18-150 mm and an incubator, capable of a constant (±2° C.) temperature within 26 to 28° C. The following procedure was used:
(1) Stock solutions (g/200 g deionized water each) were generated with: K2 HPO4, 1.50 g; MgSO4, 7H2 O, 1.50 g; Na2 CO3, 0.80 g; CaCl2 2H2 O, 0.50 g; Na2 SiO3 9H2 O, 1.16 g, and Citric acid, 1.20 g.
(3) The modified Allen's medium was prepared in a volumetric flask by the addition of 1.5 g NaNO3, 5.0 mL stock solution K2 HPO4, 5.0 mL stock solution MgSO4 -- 7H2 O, 5.0 mL Stock solution Na2 CO3, 10.0 mL stock solution CaCl2 2H2 O, 10.0 mL stock solution Na2 SiO3 9H2 O, 1.0 mL stock solution Citric acid and 1.0 mL stock solution PIV metal with enough deionized water to make 1000 mL of medium (Allen, 1968). The pH was adjusted to 7.8 and 5 mL of medium is added to each test tube. The tubes were sterilized in the autoclave for 20 minutes at 15 psi at 121° C. The test tubes were allowed to cool to 45-50° C. before adding the test compound and the inoculurn to the medium.
(4) The inoculum was a cell suspension from a 14-day-old culture of Chlorella vulgaris (UTEX 26, University of Texas) that was grown in modified Allen's medium.
The concentration of the stock solution in water or acetone of the compound to be tested is dependent on the largest dose required to be tested. Dilutions of the stock solution were made so that 100 μL of the stock solution of the corresponiding dilution was added per test tube. 100 μL of the solvent was added to the control to prepare the stock solution.
The inoculation consists of the addition of 100 μL of inoculurn per test tube.
The incubation of the control test tube and the test tubes containing compound and inoculum occurred in an incubator set between 26 to 28° C., with the temperature not varying more than ±2° C. Light was provided by plant growth fluorescent tubes and the test tubes were allowed to stand in the incubator for 14 days.
Rating of the test tubes containing different dosages of the compound will be positive or negative. […] If the medium in the rubes remains colorless, a negative (not contaminated) rating is given. The control is always positive. The minimum inhibitory concentration (MIC) of the compound is determined to be the smallest dosage showing negative algal growth.

[4] = system: PAM 212 keratinocytes; experiment: PAM 212 keratinocyte growth inhibition (photo-toxicity with UVA / dark-toxicity without light); assay type: cell-based; details: UVA 320-400 nm, 1.28 J/cm2, growth 4-5 days
Experimental: Representative examples of the compounds described and claimed herein were tested in this assay for biological activity and found to be potent inhibitors of cell growth. Inhibition of cell growth was rapid, dependent on concentration, and required light activation. […] A description of this assay follows.
The photobiological activity was assayed using a keratinocyte cell line grown in a monolayer culture. In this assay, PAM 212 keratinocytes were grown in Dulbecco's Modified Eagle's medium supplemented with 10% newborn calf serum in a 5% carbon dioxide incubator. Cells were inoculated into 6-well Falcon plastic culture dishes at 25,000 cells per well. After 24 hours, the medium was charged to fresh growth medium supplemented with increasing concentrations of the test compounds or the control medium. Controls and test concentrations were analyzed in triplicate.
These plates were then incubated in a 37 degree C. carbon dioxide incubator. After 30 minutes culture plates were exposed to UVA light (UVA, 320-400 nm) emitted from a bank of four BLB fluorescent light tubes (F40 BL, Sylvania) placed approximately 10 cm above the cell culture plates. The incident light on the culture plates was 2.4 mW/cm^2 as measured with an International Light UV radiometer, Model IL 442A. The cells were exposed to 1.28 J/square centimeter of UVA.
After completion of the irradiation phase, the cell culture medium was drained, the cells refed with fresh growth medium and then re-incubated in the carbon dioxide incubator to allow for cell growth. After 4-5 days of growth the culture plates were removed from the incubator and the cell culture medium was drained. The cells were detached from the plates with trypsin and counted in a Coulter Counter. For control cells or for cells treated with test compounds, cell growth was determined as a percentage of control. […] This value is shown in Table I for a variety of phototherapeutics.

[5] = system: Mycobacterium tuberculosis H37Rv; experiment: Antituberculosis primary in vitro screen, BACTEC 460; assay type: cell-based, Mycobacterium tuberculosis H37Rv ATCC 27294; details: Mycobacterium tuberculosis, H37RV; 12.5 μg/mL, 37° C; read-out: Anti-tubercular Activity (% inhibition)
[6] = Mus musculus, PAM212, light or radiation study

Molecule | IC50 [1] [µM] | IC50 [4] [µM] | IC50 [4, 6] [µM] | also measured
4,8-dimethyl-5'-trifluoroacetomercurimethyl-4',5'-dihydropsoralen [R = H, T = Hg-O-COCF3] | 7 | 4.2 |  | MIC [2]: 16; MIC [3]: 10
Cc1c(Br)c(=O)oc2c(C)c3c(cc12)CC(CI)O3 (stereo not shown) [R = Br, T = I, 3-Bromo-4,8-dimethyl-5'-iodomethyl-4',5'-dihydropsoralen] |  |  | 0.48 | inhibition at 12.5 µg/mL [5]: 25%
Cc1c(Br)c(=O)oc2c(C)c3c(cc12)CC(CN1C(=O)c2ccccc2C1=O)O3 (stereo not shown) [R = Br, T = phthalimido] |  |  | 3.9 | 
Cc1c(Br)c(=O)oc2c(C)c3c(cc12)CC(C[n+]1ccccc1)O3 (stereo not shown) [R = Br, T = pyridinium iodide salt, 3-Bromo-4,8-dimethyl-5'-(N-pyridiniummethyl)-4',5'-dihydropsoralen Iodide Salt] |  |  | 1.6 | 
Cc1c(C#N)c(=O)oc2c(C)c3c(cc12)CC(CBr)O3 (stereo not shown) [R = CN, T = Br, 3-Cyano-4,8-dimethyl-5'-bromomethyl-4',5'-dihydropsoralen] |  | 6.4 |  | 
CC(=O)[O][Hg][CH2]C1Cc2cc3c(C)c(C#N)c(=O)oc3c(C)c2O1 (stereo not shown) [R = CN, T = HgOAc, 3-Cyano-4,8-dimethyl-5'-acetomercurimethyl-4',5'-dihydropsoralen] | 30 | 20 |  | 
Cc1c(C#N)c(=O)oc2c(C)c3c(cc12)CC(CI)O3 (stereo not shown) [R = CN, T = I, 3-Cyano-4,8-dimethyl-5'-iodomethyl-4',5'-dihydropsoralen] |  |  | 2.1 | 
Cc1c(C#N)c(=O)oc2c(C)c3c(cc12)CC(C[n+]1ccccc1)O3 (stereo not shown) [R = CN, T = pyridinium iodide salt, 3-Cyano-4,8-dimethyl-5'-(N-pyridiniummethyl)-4',5'-dihydropsoralen Iodide Salt] |  |  | 1000 | 
Cc1c(F)c(=O)oc2c(C)c3c(cc12)CC(CBr)O3 (stereo not shown) [R = F, T = Br, 3-Fluoro-4,8-dimethyl-5'-bromomethyl-4',5'-dihydropsoralen] |  | 4 |  | 
CC(=O)[O][Hg][CH2]C1Cc2cc3c(C)c(F)c(=O)oc3c(C)c2O1 (stereo not shown) [R = F, T = HgOAc, 3-Fluoro-4,8-dimethyl-5'-acetomercurimethyl-4',5'-dihydropsoralen] | 14 | 9.3 |  | 
Cc1c(F)c(=O)oc2c(C)c3c(cc12)CC(CI)O3 (stereo not shown) [R = F, T = I, 3-Fluoro-4,8-dimethyl-5'-iodomethyl-4',5'-dihydrofurocoumarin] |  |  | 62 | inhibition at 12.5 µg/mL [5]: 31%
Cc1cc(=O)oc2c(C)c3c(cc12)CC(CN1CC(C)OC(C)C1)O3 (stereo not shown) [R = H, T = 2,6-dimethylmorpholine, 4,8-Dimethyl-5'-(2,6-dimethylmorpholino)methyl-4',5'-dihydropsoralen] |  |  | 0.01 | 
Cc1cc(=O)oc2c(C)c3c(cc12)CC(C)O3 (stereo not shown) [R = H, T = H, reference compound] |  |  | 0.27 | 
Cc1cc(=O)oc2c(C)c3c(cc12)CC([CH2][Hg][Cl])O3 (stereo not shown) [R = H, T = HgCl, 4,8-Dimethyl-5'-chloromercurimethyl-4',5'-dihydropsoralen] | 15 | 6.1 |  | MIC [2]: < 8; MIC [3]: 10
Cc1cc(=O)oc2c(C)c3c(cc12)CC([CH2][Hg][I])O3 (stereo not shown) [R = H, T = HgI, 4,8-Dimethyl-5'-iodomercurimethyl-4',5'-dihydropsoralen] | 4.2 | 1.3 |  | MIC [2]: < 8; MIC [3]: 9
CC(=O)[O][Hg][CH2]C1Cc2cc3c(C)cc(=O)oc3c(C)c2O1 (stereo not shown) [R = H, T = HgOAc, 4,8-Dimethyl-5'-acetomercurimethyl-4',5'-dihydropsoralen] | 6.2 | 4.8 |  | MIC [2]: < 8; MIC [3]: 10
Cc1cc(=O)oc2c(C)c3c(cc12)CC(CI)O3 (stereo not shown) [R = H, T = I, 4,8-Dimethyl-5'-iodomethyl-4',5'-dihydropsoralen] |  |  | 1.1 | inhibition at 12.5 µg/mL [5]: 24%
Cc1cc(=O)oc2c(C)c3c(cc12)CC(CN(CCO)CCO)O3 (stereo not drawn) [R = H, T = N(CH2 CH2 OH)2, 4,8-Dimethyl-5'-[N,N-β-(hydroxyethylamino)-methyl]-4',5'-dihydropsoralen] |  |  | 0.31 | 
Cc1cc(=O)oc2c(C)c3c(cc12)CC(CN(C)C)O3 (stereo not shown) [R = H, T = dimethyl amino iodide salt, 4,8-Dimethyl-5'-[(N,N-dimethylamino)methyl]-4',5'-dihydropsoralen Hydroiodide Salt] |  |  | 0.1 | inhibition at 12.5 µg/mL [5]: 4%
Cc1cc(=O)oc2c(C)c3c(cc12)CC(CN1CCOCC1)O3 (stereo not shown) [R = H, T = morpholino, 4,8-Dimethyl-5'-morpholinomethyl-4',5'-dihydropsoralen] |  |  | 3.2 | 
Cc1cc(=O)oc2c(C)c3c(cc12)CC(C[n+]1ccccc1)O3 (stereo not shown) [R = H, T = pyridinium iodide salt, 4,8-Dimethyl-5'-(N-pyridiniummethyl)-4',5'-dihydropsoralen Iodide Salt] |  |  | 0.37 | 
Cc1c(I)c(=O)oc2c(C)c3c(cc12)CC(CI)O3 (stereo not shown) [R = I, T = I, 3-Iodo-4,8-dimethyl-5'-iodomethyl-4',5'-dihydropsoralen] |  |  | 4.2 | inhibition at 12.5 µg/mL [5]: 17%
[Cl][Hg][CH2]C1Cc2ccccc2O1 (stereo not shown) [T = HgCl, 2-Chloromercurimethyl-2,3-dihydrobenzofuran] | 13 | 5.9 |  | MIC [2]: 24; MIC [3]: 10
CC(=O)[O][Hg][CH2]C1Cc2ccccc2O1 (stereo not shown) [T = HgOAc, 2-Acetomercurimethyl-2,3-dihydrobenzofuran] | 11 | 6.1 |  | MIC [2]: 16; MIC [3]: 10
